Converted amounts (≈) assume the structure as drawn. Like-named read-outs stand apart in the source and are kept apart here. Peptide text beside a SMILES is read from it.
Assays:
[1] = tested on: Candida albicans ATCC 10231; assay: antifungal assay, growth inhibition of C. albicans (OD 620 nm); assay type: cell-based
Experimental: Antifungal studies were carried out Candida albicans ATCC 10231 as the target microbe. The yeast culture was spread onto YM agar plates and incubated at 30° C. for 48 hours. Three colonies of this culture (about 1 mm in diameter each) were then inoculated in 5 ml of 1 X PBS solution. The suspension was vortexed and diluted 10-fold in YM broth, for an approximate final concentration of 10^5 to 5×10^5 CFU (colony forming units)/ml.
Actual concentrations of yeast cultures were determined by plating 100 μl of different solutions of the culture solution (10^-3, 10^-4 and 10^-5) onto solid YM agar plates. After 48 hours of incubation at 30° C., CFU formed were counted from each plate.
The assays were carried out in 96-well tissue culture plates. Eight wells containing only medium of YM broth served as negative controls, whereas eight wells containing medium and yeast culture served as positive controls. These controls were used to detect possible medium contamination and to provide a measure of uninhibited growth of the yeast.
For screening studies, oligopeptide mixtures were added to the yeast suspension in duplicates to reach a final concentration of 1.5 mg/ml. […] The plates were incubated over a period of 48 hours at 30° C., and the optical density (OD) at 24 and 48 hours was determined at 620 nm.

[2] = tested on: human red blood cells; assay type: cell-based
Experimental: Assays were carried out in 96-well culture tissue plates. Four wells per plate contained 125 μl of a non-peptide positive control of the surfactant Triton X-100 (poly)oxyethanol (9) octyl phenyl ether; 1 percent in deionized water!, and four wells per plate contained 115 μl of a control blank of phosphate-buffered saline (PBS). The hemolytic peptide melittin was used as comparative control. The controls served to detect possible contamination and to calculate the percent hemolysis of each peptide.
Human red blood cells (RBC's) were washed with PBS and centrifuged to separate them from the serum. The cells are then resuspended in PBS to a final suspension of 0.5 percent RBC. This suspension (125 μl) was added to the peptide mixture and control solutions. The plates were incubated at 37° C. for one hour and centrifuged at 2800 rpm for five minutes. The release of hemoglobin resulting from the cell lysis was determined by measuring the OD at 414 nm of 100 μl of the supernatant.

[3] = tested on: Staphylococcus aureus (ATCC 29213); assay: microbe, parasite or virus in culture
Experimental: (§1) Escherichia coli (ATCC 25922) was used as Gram-negative (-) and Staphylococcus aureus (ATCC 29213) as Gram-positive (+) bacteria. Bacteria were grown overnight (about 18 hours) at 37° C. in Mueller-Hinton (MH) broth. This culture was reinoculated and incubated at 37° C. to reach the exponential phase of bacteria growth; i.e., a final bacterial suspension containing about 10^5 to 5×10^5 colony-forming units (CFU)/ml. The concentration of cells was established by plating 100 μl of different dilutions of the culture solution (e.g., 10^-2, 10^-3 and 10^-4) onto solid agar plates. Following an overnight (about 18 hours) incubation at 37° C., the CFU thus formed were counted on each agar plate.
(§2) 96-Well tissue culture plates were utilized, with eight wells per plate containing only medium as control blanks, whereas eight other wells contained medium plus cells as a positive growth control. These controls were used to detect possible medium contamination and to provide a measure of uninhibited growth of the microorganisms.
(§3) For initial screening studies, oligopeptide sets were added to the bacterial suspension to reach a final concentration of 1 mg/ml.
(§4) The plates were incubated overnight (about 18 hours) at 37° C., and the optical density (OD) determined at 620 nm after different times of incubation.

[4] = tested on: Escherichia coli (ATCC 25922); assay: antimicrobial assay, growth inhibition of E. coli (OD 620 nm); assay type: cell-based; conditions: Tables 1 and 2
Experimental: as §1, §2, §3, §4

[5] = tested on: Herpes Simplex Virus Type 1 (HSV-1); assay: HSV-1 plaque assay on Vero cell monolayers; assay type: cell-based; conditions: Table 10
Experimental: The screenings utilized a plaque assay in which 24-well plates containing Vero (monkey kidney) cell monolayers were overlaid with 400 μg/ml of each peptide or mixture in M-199V (medium and newborn calf serum). The plates were incubated for two hours at 37° C.
Each well was thereafter aspirated and immediately overlaid with 400 μg of peptide or mixture in DMEM-O (Dulbeco's modified Eagle's medium and pooled human gamma globulin) and incubated for 48 hours. […] At 48 hours, the plate wells were aspirated, rinsed, fixed and stained. Plaque formation, if present, was tallied and recorded.
The PFU's per well of six controls were averaged and represent 100 percent plaque formation at approximately 50 PFU's per well. The average PFU's per screened peptide or mixture (duplicate wells) quantitatively represented percent viral inhibition of plaque formation or infection. For example, a count of 10 PFU's of a screened peptide compared to the control of 50 PFU's would represent 20 percent plaque formation and 80 percent plaque inhibition.

[6] = tested on: Vero (monkey kidney) cell monolayers; assay type: cell-based
[7] = 7-mer studies, Tables 5 and 6 and parent 6-mer

C[C@@H]1[C@H](O)[C@@H](C)/C=C/C=C/CC/C=C/C=C/C=C/C=C/[C@H](O[C@@H]2O[C@H](C)[C@@H](O)[C@H](N)[C@@H]2O)C[C@@H]2O[C@](O)(C[C@@H](O)[C@H](O)CC[C@@H](O)C[C@@H](O)C[C@@H](O)CC(=O)O[C@H]1C)C[C@H](O)[C@H]2C(=O)O [Nystatin, reference compound]
MIC ([1]; Candida albicans, ATCC10231): 2 to 4 µg/mL (≈ 2.16 to 4.32 µM)

Ac-IRRWWRF-NH2 [IRRWWRF]
HD-50 [2]: 142 µg/mL
IC-50 [3, 7]: 4.7 µg/mL
MIC [3, 7]: 4 to 8 µg/mL

Ac-FRWWHK-NH2 [FRWWHK]
IC-50 [4]: 15 µg/mL
MIC [4]: 16 to 32 µg/mL
IC-50 ([3]; Tables 3 and 4): 30 µg/mL
MIC ([3]; Tables 3 and 4): 31 to 62 µg/mL

Ac-KRRWWRF-NH2 [KRRWWRF]
IC-50 ([1]; Table 9): 40 µg/mL
MIC ([1]; Table 9): 45 to 62 µg/mL

C[C@@H]1[C@H](O)[C@@H](C)/C=C/C=C/C=C/C=C/C=C/C=C/C=C/[C@H](O[C@@H]2O[C@H](C)[C@@H](O)[C@H](N)[C@@H]2O)C[C@@H]2O[C@](O)(C[C@@H](O)C[C@@H](O)[C@H](O)CC[C@@H](O)C[C@@H](O)CC(=O)O[C@H]1C)C[C@H](O)[C@H]2C(=O)O [Amphotericin B, reference compound]
IC50 ([1]; Candida albicans, ATCC10231, Table 9): 0.5 µg/mL (≈ 0.541 µM)
MIC ([1]; Candida albicans, ATCC10231, Table 9, read-out: MIC): 2 to 4 µg/mL (≈ 2.16 to 4.33 µM)

Ac-RRWWRFR-NH2 [RRWWRFR]
IC-50 [3, 7]: 7.9 µg/mL
MIC [3, 7]: 8 to 16 µg/mL
IC-50 ([1]; Table 9): 45 µg/mL
MIC ([1]; Table 9): 50 to 62 µg/mL

Ac-FRWWHL-NH2 [FRWWHL]
IC-50 [4]: 31 µg/mL
MIC [4]: 62 to 125 µg/mL
IC-50 ([3]; Tables 3 and 4): 9.3 µg/mL
MIC ([3]; Tables 3 and 4): 16 to 32 µg/mL

Ac-RRWWCW-NH2 [RRWWCW]
HD-50 [2]: 11 µg/mL
IC-50 ([3]; Tables 3 and 4): 4.1 µg/mL
MIC ([3]; Tables 3 and 4): 4.5 to 9.0 µg/mL

Ac-RRWWCF-NH2 [RRWWCF]
concentration for 100 Percent Inhibition [5]: 5 µg/mL
Toxic Concentration [6]: 10 µg/mL

Ac-RRWWRFK-NH2 [RRWWRFK]
IC-50 ([1]; Table 9): 46 µg/mL
MIC ([1]; Table 9): 50 to 62 µg/mL

Ac-YRRWWRF-NH2 [YRRWWRF]
HD-50 [2]: 219 µg/mL
IC-50 [3, 7]: 4.5 µg/mL
MIC [3, 7]: 4 to 8 µg/mL

Ac-RRWWCM-NH2 [RRWWCM]
concentration for 100 Percent Inhibition [5]: 1 µg/mL
Toxic Concentration [6]: 10 µg/mL

Ac-RRWWRFF-NH2 [RRWWRFF]
HD-50 [2]: 106 µg/mL
IC-50 [3, 7]: 4.7 µg/mL
MIC [3, 7]: 4 to 8 µg/mL

Ac-FRWLLR-NH2 [FRWLLR]
HD-50 [2]: 171 µg/mL
IC-50 [4]: 4 µg/mL
MIC [4]: 5 to 10 µg/mL
IC-50 ([3]; Tables 3 and 4): 13 µg/mL
MIC ([3]; Tables 3 and 4): 24 to 48 µg/mL

Ac-RRWWCH-NH2 [RRWWCH]
HD-50 [2]: 128 µg/mL
IC-50 ([3]; Tables 3 and 4): 6.2 µg/mL
MIC ([3]; Tables 3 and 4): 5.5 to 11 µg/mL

Ac-FRWLLH-NH2 [FRWLLH]
IC-50 [4]: 17 µg/mL
MIC [4]: 20 to 40 µg/mL

Ac-RRWWMN-NH2 [RRWWMN]
IC-50 [4]: 25 µg/mL
MIC [4]: 31 to 62 µg/mL

Ac-RRWWMI-NH2 [RRWWMI]
IC-50 [4]: 12 µg/mL
MIC [4]: 16 to 32 µg/mL

Ac-RRWWMH-NH2 [RRWWMH]
IC-50 [4]: 24 µg/mL
MIC [4]: 31 to 62 µg/mL

Ac-RRWWMW-NH2 [RRWWMW]
IC-50 [4]: 15 µg/mL
MIC [4]: 16 to 32 µg/mL

Ac-RRWWMS-NH2 [RRWWMS]
IC-50 [4]: 17 µg/mL
MIC [4]: 20 to 32 µg/mL

Ac-RRWWMP-NH2 [RRWWMP]
IC-50 [4]: 26 µg/mL
MIC [4]: 31 to 62 µg/mL

Ac-RRWWRH-NH2 [RRWWRH]
IC-50 ([1]; Table 9): 30.1 µg/mL
MIC ([1]; Table 9): 40 to 80 µg/mL

Ac-FRWWHF-NH2 [FRWWHF]
IC-50 [4]: 30 µg/mL
MIC [4]: 31 to 62 µg/mL
IC-50 ([3]; Tables 3 and 4): 16 µg/mL
MIC ([3]; Tables 3 and 4): 31 to 62 µg/mL

Ac-RRWWCVR-NH2 [RRWWCVR]
IC-50 ([1]; Table 9): 50 µg/mL
MIC ([1]; Table 9): 50 to 62 µg/mL

Ac-RRWWMG-NH2 [RRWWMG]
IC-50 [4]: 9 µg/mL
MIC [4]: 10 to 16 µg/mL

Ac-FRWLLF-NH2 [FRWLLF]
HD-50 [2]: 34 µg/mL
IC-50 ([3]; Tables 3 and 4): 11 µg/mL
MIC ([3]; Tables 3 and 4): 9 to 18 µg/mL

Ac-RRWWRFW-NH2 [RRWWRFW]
HD-50 [2]: 59 µg/mL
IC-50 [3, 7]: 2.5 µg/mL
MIC [3, 7]: 4 to 8 µg/mL

Ac-RRWWMA-NH2 [RRWWMA]
IC-50 [4]: 18 µg/mL
MIC [4]: 20 to 32 µg/mL

Ac-RRWWCK-NH2 [RRWWCK]
HD-50 [2]: 249 µg/mL
IC-50 ([3]; Tables 3 and 4): 5.5 µg/mL
MIC ([3]; Tables 3 and 4): 4.8 to 9.6 µg/mL
concentration for 100 Percent Inhibition [5]: 5 µg/mL
Toxic Concentration [6]: 10 µg/mL

Ac-RRWWCA-NH2 [RRWWCA]
IC-50 ([3]; Tables 3 and 4): 8.4 µg/mL
MIC ([3]; Tables 3 and 4): 9 to 18 µg/mL
concentration for 100 Percent Inhibition [5]: 1 µg/mL
Toxic Concentration [6]: 25 µg/mL

Ac-RRWWCG-NH2 [RRWWCG]
concentration for 100 Percent Inhibition [5]: 1 µg/mL
Toxic Concentration [6]: 10 µg/mL

Ac-RRWWMT-NH2 [RRWWMT]
IC-50 [4]: 18 µg/mL
MIC [4]: 20 to 32 µg/mL

CC(=O)N[C@@H](CCCNC(=N)N)C(=O)N[C@@H](CCCNC(=N)N)C(=O)N[C@@H](Cc1c[nH]c2ccccc12)C(=O)N[C@@H](Cc1c[nH]c2ccccc12)C(=O)N[C@@H](CS)C(=O)N[C@@H](CS)C(N)=O [RRWWCC] (Ac-RRWWCC-NH2)
concentration for 100 Percent Inhibition [5]: 1 µg/mL
Toxic Concentration [6]: 10 µg/mL

Ac-RRWWRW-NH2 [RRWWRW]
concentration for 100 Percent Inhibition [5]: 1 µg/mL
Toxic Concentration [6]: 25 µg/mL

Ac-RRWWRR-NH2 [RRWWRR]
concentration for 100 Percent Inhibition [5]: 1 µg/mL
IC-50 ([1]; Table 9): 27.6 µg/mL
MIC ([1]; Table 9): 30 to 42 µg/mL
Toxic Concentration [6]: 25 µg/mL

Ac-RRWWMR-NH2 [RRWWMR]
IC-50 [4]: 9 µg/mL
MIC [4]: 10 to 16 µg/mL

Ac-RRWWMF-NH2 [RRWWMF]
IC-50 [4]: 18 µg/mL
MIC [4]: 20 to 32 µg/mL

Ac-FRWWHR-NH2 [FRWWHR]
IC-50 [4]: 13 µg/mL
MIC [4]: 16 to 32 µg/mL
IC-50 ([3]; Tables 3 and 4): 18 µg/mL
MIC ([3]; Tables 3 and 4): 16 to 32 µg/mL

Ac-FRWLLK-NH2 [FRWLLK]
HD-50 [2]: 356 µg/mL
IC-50 [4]: 5 µg/mL
MIC [4]: 5 to 10 µg/mL

Ac-RRWWCY-NH2 [RRWWCY]
HD-50 [2]: 50 µg/mL
IC-50 ([3]; Tables 3 and 4): 5.4 µg/mL
MIC ([3]; Tables 3 and 4): 4.7 to 9.5 µg/mL

Ac-FRWWHW-NH2 [FRWWHW]
IC-50 [4]: 27 µg/mL
MIC [4]: 62 to 125 µg/mL
IC-50 ([3]; Tables 3 and 4): 23 µg/mL
MIC ([3]; Tables 3 and 4): 31 to 62 µg/mL

Ac-WRRWWRF-NH2 [WRRWWRF]
HD-50 [2]: 158 µg/mL
IC-50 [3, 7]: 5.4 µg/mL
MIC [3, 7]: 4 to 8 µg/mL

Ac-RRWWMV-NH2 [RRWWMV]
IC-50 [4]: 15 µg/mL
MIC [4]: 16 to 32 µg/mL
